Laboratory results as given in PubChem BioAssay (NCI).
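GI50 = concentration required for 50% inhibition of growth. TGI: total growth inhibition.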

Key:
Assay in all cases: growth of human tumour cells (NCI), 384-well format
DU-145 prostate = tested on: DU-145 prostate
NCI-H322M lung = tested on: NCI-H322M lung
OVCAR-5 ovarian = tested on: OVCAR-5 ovarian
SF-539 CNS = tested on: SF-539 CNS
OVCAR-3 ovarian = tested on: OVCAR-3 ovarian
MCF7 breast = tested on: MCF7 breast
U251 glioblastoma = tested on: U251 glioblastoma
SN12C renal = tested on: SN12C renal
SF-295 CNS = tested on: SF-295 CNS
KM12 colon = tested on: KM12 colon
HT29 colon = tested on: HT29 colon
IGROV1 ovarian = tested on: IGROV1 ovarian
HOP-92 NSCLC = tested on: HOP-92 NSCLC
SK-MEL-2 melanoma = tested on: SK-MEL-2 melanoma
TK-10 renal = tested on: TK-10 renal
PC-3 prostate = tested on: PC-3 prostate
SW-620 colon = tested on: SW-620 colon
OVCAR-8 ovarian = tested on: OVCAR-8 ovarian
MOLT-4 leukemia = tested on: MOLT-4 leukemia
SK-OV-3 ovarian = tested on: SK-OV-3 ovarian
SNB-19 CNS = tested on: SNB-19 CNS
HCC-2998 colon = tested on: HCC-2998 colon
HCT-15 colon = tested on: HCT-15 colon
CCRF-CEM leukemia = tested on: CCRF-CEM leukemia
MDA-MB-231 breast = tested on: MDA-MB-231 breast
NCI-H23 lung = tested on: NCI-H23 lung
SK-MEL-28 melanoma = tested on: SK-MEL-28 melanoma
HL-60(TB) leukemia = tested on: HL-60(TB) leukemia
UACC-62 melanoma = tested on: UACC-62 melanoma
CAKI-1 renal = tested on: CAKI-1 renal
786-0 renal = tested on: 786-0 renal
NCI-H460 NSCLC = tested on: NCI-H460 NSCLC
A498 renal = tested on: A498 renal
MALME-3M melanoma = tested on: MALME-3M melanoma
NCI-H522 lung = tested on: NCI-H522 lung
MDA-MB-435 melanoma = tested on: MDA-MB-435 melanoma
BT-549 breast = tested on: BT-549 breast
M14 melanoma = tested on: M14 melanoma
OVCAR-4 ovarian = tested on: OVCAR-4 ovarian
ACHN renal = tested on: ACHN renal
SF-268 CNS = tested on: SF-268 CNS
EKVX NSCLC = tested on: EKVX NSCLC
COLO 205 colon = tested on: COLO 205 colon
UACC-257 melanoma = tested on: UACC-257 melanoma
NCI/ADR-RES ovarian = tested on: NCI/ADR-RES ovarian
SK-MEL-5 melanoma = tested on: SK-MEL-5 melanoma
A549 NSCLC = tested on: A549 NSCLC
SR leukemia = tested on: SR leukemia
T-47D breast = tested on: T-47D breast
RPMI-8226 leukemia = tested on: RPMI-8226 leukemia
SNB-75 CNS = tested on: SNB-75 CNS
MDA-MB-468 breast = tested on: MDA-MB-468 breast
HS 578T breast = tested on: HS 578T breast
NCI-H226 lung = tested on: NCI-H226 lung
HOP-62 NSCLC = tested on: HOP-62 NSCLC
RXF 393 renal = tested on: RXF 393 renal

Nc1n[n+](=O)c2ccccc2n1O
GI50 (DU-145 prostate): 43.5 µM | TGI (DU-145 prostate): > 100 µM | GI50 (NCI-H322M lung): > 100 µM | TGI (NCI-H322M lung): > 100 µM | GI50 (OVCAR-5 ovarian): > 100 µM | TGI (OVCAR-5 ovarian): > 100 µM | GI50 (SF-539 CNS): 58.3 µM | TGI (SF-539 CNS): > 100 µM | GI50 (OVCAR-3 ovarian): 35.1 µM | TGI (OVCAR-3 ovarian): > 100 µM | GI50 (MCF7 breast): 57.6 µM | TGI (MCF7 breast): > 100 µM | GI50 (U251 glioblastoma): 46.7 µM | TGI (U251 glioblastoma): > 100 µM | GI50 (SN12C renal): 22.3 µM | TGI (SN12C renal): > 100 µM | GI50 (SF-295 CNS): 26.1 µM | TGI (SF-295 CNS): > 100 µM | GI50 (KM12 colon): 41.7 µM | TGI (KM12 colon): > 100 µM | GI50 (HT29 colon): 69.7 µM | TGI (HT29 colon): > 100 µM | GI50 (IGROV1 ovarian): 36.7 µM | TGI (IGROV1 ovarian): > 100 µM | GI50 (HOP-92 NSCLC): 20.3 µM | TGI (HOP-92 NSCLC): 65.5 µM | GI50 (SK-MEL-2 melanoma): 42.2 µM | TGI (SK-MEL-2 melanoma): 90.5 µM | GI50 (TK-10 renal): 69.8 µM | TGI (TK-10 renal): > 100 µM | GI50 (PC-3 prostate): 46.4 µM | TGI (PC-3 prostate): > 100 µM | GI50 (SW-620 colon): 72.5 µM | TGI (SW-620 colon): > 100 µM | GI50 (OVCAR-8 ovarian): 37.7 µM | TGI (OVCAR-8 ovarian): > 100 µM | GI50 (MOLT-4 leukemia): 12.3 µM | TGI (MOLT-4 leukemia): 24.8 µM | GI50 (SK-OV-3 ovarian): 17.7 µM | TGI (SK-OV-3 ovarian): 70.5 µM | GI50 (SNB-19 CNS): 48.2 µM | TGI (SNB-19 CNS): > 100 µM | GI50 (HCC-2998 colon): 35.8 µM | TGI (HCC-2998 colon): > 100 µM | GI50 (HCT-15 colon): 32 µM | TGI (HCT-15 colon): > 100 µM | GI50 (CCRF-CEM leukemia): 20.5 µM | TGI (CCRF-CEM leukemia): 47.5 µM | GI50 (MDA-MB-231 breast): 70 µM | TGI (MDA-MB-231 breast): > 100 µM | GI50 (NCI-H23 lung): 18 µM | TGI (NCI-H23 lung): 46.5 µM | GI50 (SK-MEL-28 melanoma): > 100 µM | TGI (SK-MEL-28 melanoma): > 100 µM | GI50 (HL-60(TB) leukemia): 20.2 µM | TGI (HL-60(TB) leukemia): 40.5 µM | GI50 (UACC-62 melanoma): 20.6 µM | TGI (UACC-62 melanoma): 59.9 µM | GI50 (CAKI-1 renal): 36.2 µM | TGI (CAKI-1 renal): > 100 µM | GI50 (786-0 renal): 59.8 µM | TGI (786-0 renal): > 100 µM | GI50 (NCI-H460 NSCLC): 18.8 µM | TGI (NCI-H460 NSCLC): 61.6 µM | GI50 (A498 renal): 38.7 µM | TGI (A498 renal): > 100 µM | GI50 (MALME-3M melanoma): 27.8 µM | TGI (MALME-3M melanoma): 81.4 µM | GI50 (NCI-H522 lung): 11.9 µM | TGI (NCI-H522 lung): 44.1 µM | GI50 (MDA-MB-435 melanoma): > 100 µM | TGI (MDA-MB-435 melanoma): > 100 µM | GI50 (BT-549 breast): 24.1 µM | TGI (BT-549 breast): 65.1 µM | GI50 (M14 melanoma): 24.5 µM | TGI (M14 melanoma): 65.6 µM | GI50 (OVCAR-4 ovarian): 24.5 µM | TGI (OVCAR-4 ovarian): 73 µM | GI50 (ACHN renal): 27.2 µM | TGI (ACHN renal): 69.8 µM | GI50 (SF-268 CNS): 24.3 µM | TGI (SF-268 CNS): 73.5 µM | GI50 (EKVX NSCLC): 33.1 µM | TGI (EKVX NSCLC): > 100 µM | GI50 (COLO 205 colon): 35.8 µM | TGI (COLO 205 colon): > 100 µM | GI50 (UACC-257 melanoma): 68.2 µM | TGI (UACC-257 melanoma): > 100 µM | GI50 (NCI/ADR-RES ovarian): 51.4 µM | TGI (NCI/ADR-RES ovarian): > 100 µM | GI50 (SK-MEL-5 melanoma): 14.7 µM | TGI (SK-MEL-5 melanoma): 34.3 µM | GI50 (A549 NSCLC): 47 µM | TGI (A549 NSCLC): > 100 µM | GI50 (SR leukemia): 4.04 µM | TGI (SR leukemia): 13.5 µM | GI50 (T-47D breast): 24.1 µM | TGI (T-47D breast): > 100 µM | GI50 (RPMI-8226 leukemia): 13.3 µM | TGI (RPMI-8226 leukemia): 31.4 µM | GI50 (SNB-75 CNS): 20 µM | TGI (SNB-75 CNS): 60.3 µM | GI50 (MDA-MB-468 breast): 6.96 µM | TGI (MDA-MB-468 breast): 23.1 µM | GI50 (HS 578T breast): 20 µM | TGI (HS 578T breast): > 100 µM | GI50 (NCI-H226 lung): 39.4 µM | TGI (NCI-H226 lung): > 100 µM | GI50 (HOP-62 NSCLC): 22.5 µM | TGI (HOP-62 NSCLC): 66.6 µM | GI50 (RXF 393 renal): 36.8 µM | TGI (RXF 393 renal): > 100 µM
